Target: T1, β-secretase (BACE) (Homo sapiens, UniProt P56817)
T1 construct: purchased Panvera
Assay: BACE FS1% Inhibition Assay (Example 160)
Assay type: biochemical
Protocol: The following reagents were used in this assay: sodium acetate, PEB8000 (Sigma), DMSO, HEPES, FS1 substrate [[…]], β-secretase (BACE) (Panvera), and 96-well plate (HE microplate, Molecular Devices). […] The FS1-substrate stock solution was prepared in DMSO as a 10 mg/mL solution. The FS1-substrate working solution was prepared by diluting the 10 mg/mL stock solution with substrate assay buffer to a final concentration of 300 μg/mL. The β-secretase (BACE) working solution was prepared by diluting a 0.83 mg/mL BACE stock solution with enzyme assay buffer to a final concentration of 4 μg/mL. Test compounds were dissolved in DMSO to 10 mM. […] The screening procedure for this assay was as follows: 15 μL of BACE working solution was pipetted into each well of a 96-well plate. To each well was the pipetted 2 μL of test compound at the selected concentration. Test compound and BACE were then mixed with a pipettor and incubated for 20 min at room temperature. To each well was then added 10 μL of the FS1 substrate working solution. The plates were then incubated for 1 hour at room temperature. […] The procedure for the blank was as follows. 15 μL of assay buffer was pipetted into each well to be used as a blank control. To each well was then added 2 μL of vehicle and 10 μL of FS1-substrate working solution. The plates were then incubated for 1 hour at room temperature. […] The procedure for the positive control was as follows: 15 μL of BACE working solution was pipetted into each well to be used as a positive control. To each well was then pipetted 2 μL of vehicle. Vehicle and BACE were then mixed with a pipettor and incubated for 20 min at room temperature. To each well was then added 10 μL of the FS1 substrate working solution. The plates were then incubated for 1 hour at room temperature. […] For test compounds, % inhibition was determined at each concentration as follows: [formula]

T1 sequence (P56817 46-501): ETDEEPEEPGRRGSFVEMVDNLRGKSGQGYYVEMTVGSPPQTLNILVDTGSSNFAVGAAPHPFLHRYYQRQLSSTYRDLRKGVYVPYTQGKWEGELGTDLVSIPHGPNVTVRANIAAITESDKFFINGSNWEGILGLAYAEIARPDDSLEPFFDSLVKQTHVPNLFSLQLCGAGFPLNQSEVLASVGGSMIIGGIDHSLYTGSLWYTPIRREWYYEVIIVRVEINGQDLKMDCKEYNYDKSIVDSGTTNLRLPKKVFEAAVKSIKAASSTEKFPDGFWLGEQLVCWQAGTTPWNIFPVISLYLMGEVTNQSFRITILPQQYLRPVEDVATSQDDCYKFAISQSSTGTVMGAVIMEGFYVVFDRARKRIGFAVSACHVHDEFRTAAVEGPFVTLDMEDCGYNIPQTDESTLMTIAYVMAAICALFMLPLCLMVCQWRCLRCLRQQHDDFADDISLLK

| SMILES | % Inhibition (FS) (0.3 μM test compound) | % Inhibition (FS) (1 μM test compound) | % Inhibition (FS) (0.3 μM test compound, 0.3 µM) | % Inhibition (FS) (1 μM test compound, 1 µM) | % Inhibition (FS) (3 μM test compound, 3 µM) | % Inhibition (FS) (3 μM test compound) |
| --- | --- | --- | --- | --- | --- | --- |
| CN(C(=O)CCC(C1CCCCC1)N1Cc2cc(Oc3ccccc3)ccc2N=C1N)C1CCC(O)CC1 (centres unmarked) [Compound 639] |  |  | <30% | <30% | 48% |  |
| Cc1ccccc1-c1ccc2c(c1)CN(CCNC(=O)CCC(F)(F)F)C(N)=N2 [Compound 678] | 51% | 88% |  |  |  | 99% |
| CCCCCC(CCC(=O)NC1CCCCC1)N1Cc2cc(Oc3ccccc3)ccc2N=C1N (centres unmarked) [Compound 149] | 32% | 71% |  |  |  | 111% |
| NC1=Nc2ccc(-c3ccc4ccccc4c3)cc2CN1CCNC(=O)CCC(F)(F)F [Compound 686] | <30% | 73% |  |  |  | 80% |
| COc1ccc(C(CCC(=O)N(C)C2CCCCC2)N2Cc3cc(Oc4ccccc4)ccc3N=C2N)cc1 (centres unmarked) [Compound 298] | <30% | 75% |  |  |  | 110% |
| CCCC(=O)NCCN1Cc2cc(-c3ccc4ccccc4c3)ccc2N=C1N [Compound 666] | 37% | <30% |  |  |  | <30% |
| CC(CC(=O)NCCN1Cc2cc(-c3ccccc3)ccc2N=C1N)C(F)(F)F (centres unmarked) [Compound 685] | 50% | 90% |  |  |  |  |
| NC1=Nc2ccc(-c3ccccc3Cl)cc2CN1CCNC(=O)CCC(F)(F)F [Compound 682] | 39% | 77% |  |  |  | 97% |
| CC(C)CCC(=O)NCCN1Cc2cc(-c3cnc4ccccc4c3)ccc2N=C1N [Compound 675] | 35% | <30% |  |  |  | <30% |
| CCCCC(CC)C(=O)NCCN1Cc2cc(-c3cnc4ccccc4c3)ccc2N=C1N (centres unmarked) [Compound 676] | 33% | <30% |  |  |  | 44% |
| CCCC(=O)NCCN1Cc2cc(-c3cnc4ccccc4c3)ccc2N=C1N [Compound 673] | 34% | <30% |  |  |  | <30% |
| CCCC(CCC)C(=O)NCC(C1CCCCC1)N1Cc2cc(Oc3ccccc3)ccc2N=C1N (centres unmarked) [Compound 302] | <30% | 72% |  |  |  | 108% |
| CC(C)(C)C(=O)NCCN1Cc2cc(-c3ccc4ccccc4c3)ccc2N=C1N [Compound 667] | 33% | <30% |  |  |  | <30% |
| CC(C)[C@H](CNC(=O)C1CCCCC1)N1Cc2cc(Oc3ccccc3)ccc2N=C1N [Compound 561] | 114% | 118% |  |  |  | 125% |
| CCCCC(CC)C(=O)NCCN1Cc2cc(-c3ccc4ccccc4c3)ccc2N=C1N (centres unmarked) [Compound 669] | <30% | <30% |  |  |  | 32% |
| NC1=Nc2ccc(-c3cnc4ccccc4c3)cc2CN1CCNC(=O)C1CCC1 [Compound 670] | <30% | <30% |  |  |  | 44% |
| NC1=Nc2ccc(-c3ccc4ccccc4c3)cc2CN1CCNC(=O)C1CCCC1 [Compound 664] | <30% | <30% |  |  |  | <30% |
| Cc1ccccc1-c1ccc2c(c1)CN(CCNC(=O)CCC(C)C)C(N)=N2 [Compound 661] | 68% | 98% |  |  |  |  |
| NC1=Nc2ccc(-c3ccccc3F)cc2CN1CCNC(=O)CCC(F)(F)F [Compound 680] | 42% | 75% |  |  |  | 90% |
| CC(C)(C)C(=O)NCCN1Cc2cc(-c3cnc4ccccc4c3)ccc2N=C1N [Compound 674] | 36% | <30% |  |  |  | 41% |

Results, then the compound that gave them:

| % Inhibition (FS) (0.3 μM test compound) | % Inhibition (FS) (1 μM test compound) | % Inhibition (FS) (0.3 μM test compound, 0.3 µM) | % Inhibition (FS) (1 μM test compound, 1 µM) | % Inhibition (FS) (3 μM test compound, 3 µM) | % Inhibition (FS) (3 μM test compound) | SMILES |
| --- | --- | --- | --- | --- | --- | --- |
| 46% | 80% |  |  |  |  | CN(CCc1ccccc1)C(=O)CC[C@@H](C1CCCCC1)N1Cc2cc(-c3ccccc3F)ccc2N=C1N [Compound 727] |
| 14% | 28% |  |  |  | 61% | CN(C(=O)CCC(C)(C)N1Cc2cc(Oc3ccccc3)ccc2N=C1N)C1CCCCC1 [Compound 738] |
| <30% | <30% |  |  |  | 52% | NC1=Nc2ccc(-c3ccccc3Cl)cc2CN1CCNC(=O)C1CCC(C(F)(F)F)CC1 (centres unmarked) [Compound 690] |
| <30% | <30% |  |  |  | <30% | NC1=Nc2ccc(C3=CCCC3)cc2CN1CCNC(=O)C1CCC(C(F)(F)F)CC1 (centres unmarked) [Compound 707] |
| 85% | 104% |  |  |  | 112% | CN(C(=O)CC[C@@H](C1CCOCC1)N1Cc2cc(Oc3ccccc3)ccc2N=C1N)[C@H]1CC[C@H](C(=O)O)CC1 [Compound 746] |
| −48% | −38% |  |  |  | −25% | CN(C(=O)CCC(C1CCCCC1)N1Cc2cc(Oc3ccccc3)ccc2N=C1N)C1(C(=O)O)CCCCC1 (centres unmarked) [Compound 741] |
| 69% | 97% |  |  |  |  | COC(=O)C(COCc1ccccc1)N(C)C(=O)CCC(C1CCCCC1)N1Cc2cc(Oc3ccccc3)ccc2N=C1N (centres unmarked) [Compound 780] |
| 97% |  |  |  |  |  | COC(=O)[C@H](COCc1ccccc1)N(C)C(=O)CC[C@@H](C1CCOCC1)N1Cc2cc(Oc3ccccc3)ccc2N=C1N [Compound 786] |
| <30% | 44% |  |  |  | 89% | CN(C(=O)CCC(C1CCCCC1)N1Cc2cc(Oc3ccccc3)ccc2N=C1N)C1CCC(C(=O)OCc2ccccc2)CC1 (centres unmarked) [Compound 760] |
| <30% | 36% |  |  |  | 85% | COc1cccc(F)c1-c1ccc2c(c1)CN(CCNC(=O)C1CCC(C(F)(F)F)CC1)C(N)=N2 (centres unmarked) [Compound 700] |
| <30% | <30% |  |  |  | 54% | NC1=Nc2ccc(-c3ccccc3)cc2CN1CCNC(=O)C1CCC(C(F)(F)F)CC1 (centres unmarked) [Compound 701] |
| <30% | <30% |  |  |  | 54% | CC(=O)N1CCC(C(=O)NCCN2Cc3cc(-c4ccccc4C)ccc3N=C2N)CC1 [Compound 695] |
| 8% | 35% |  |  |  | 89% | CN(C(=O)CC[C@@H](C1CCCCC1)N1Cc2ccc(Oc3ccccc3)cc2N=C1N)C1CCCCC1 [Compound 754] |
| <30% | <30% |  |  |  | <30% | COC1CCCC(C(=O)NCCN2Cc3cc(C4=CCCC4)ccc3N=C2N)C1 (centres unmarked) [Compound 706] |
| <30% | 72% |  |  |  |  | COC1CCCC(C(=O)NCCN2Cc3cc(-c4ccccc4C)ccc3N=C2N)C1 (centres unmarked) [Compound 696] |
| <30% | 46% |  |  |  | 83% | COC1CCCC(C(=O)NCCN2Cc3cc(-c4ccccc4)ccc3N=C2N)C1 (centres unmarked) [Compound 703] |
| 38% | <30% |  |  |  | 65% | CN(Cc1cc(-c2ccccc2)on1)C(=O)CC[C@@H](C1CCCCC1)N1Cc2cc(-c3ccccc3F)ccc2N=C1N [Compound 724] |
| 33% | 39% |  |  |  | 72% | COc1ccccc1-c1ccc2c(c1)CN([C@@H](CCC(=O)N(C)Cc1cnn(-c3ccccc3)c1)C1CCCCC1)C(N)=N2 [Compound 717] |
| 33% | 74% |  |  |  | 126% | CN(CCC#N)C(=O)CC[C@@H](C1CCCCC1)N1Cc2cc(-c3ccccc3F)ccc2N=C1N [Compound 725] |
| 31% | 64% |  |  |  | 93% | COc1cccc(F)c1-c1ccc2c(c1)CN(CCNC(=O)C1CCOCC1)C(N)=N2 [Compound 699] |
| <30% | <30% |  |  |  | <30% | NC1=Nc2ccc(C3=CCCCC3)cc2CN1CCNC(=O)C1CCC(C(F)(F)F)CC1 (centres unmarked) [Compound 704] |
| 31% | <30% |  |  |  | 81% | COc1ccccc1-c1ccc2c(c1)CN([C@@H](CCC(=O)N(C)Cc1cc(-c3ccccc3)on1)C1CCCCC1)C(N)=N2 [Compound 719] |
| <30% | 50% |  |  |  | 87% | NC1=Nc2ccc(-c3ccccc3F)cc2CN1CCNC(=O)C1CCOCC1 [Compound 687] |
| <30% | <30% |  |  |  | 64% | COc1ccccc1-c1ccc2c(c1)CN(CCNC(=O)C1CCC(C(F)(F)F)CC1)C(N)=N2 (centres unmarked) [Compound 698] |

Source: patent US8436006B2, “2-amino-quinazoline derivatives useful as inhibitors of β-secretase (BACE)” (Jansssen Pharmaceutica N.V., priority 2004, dated 2013)
